target: PIK3CA (human) (UniProt P42336); assay: Assessment of PI3KCA Kinase Activity
Sequence (P42336 whole entry, looked up): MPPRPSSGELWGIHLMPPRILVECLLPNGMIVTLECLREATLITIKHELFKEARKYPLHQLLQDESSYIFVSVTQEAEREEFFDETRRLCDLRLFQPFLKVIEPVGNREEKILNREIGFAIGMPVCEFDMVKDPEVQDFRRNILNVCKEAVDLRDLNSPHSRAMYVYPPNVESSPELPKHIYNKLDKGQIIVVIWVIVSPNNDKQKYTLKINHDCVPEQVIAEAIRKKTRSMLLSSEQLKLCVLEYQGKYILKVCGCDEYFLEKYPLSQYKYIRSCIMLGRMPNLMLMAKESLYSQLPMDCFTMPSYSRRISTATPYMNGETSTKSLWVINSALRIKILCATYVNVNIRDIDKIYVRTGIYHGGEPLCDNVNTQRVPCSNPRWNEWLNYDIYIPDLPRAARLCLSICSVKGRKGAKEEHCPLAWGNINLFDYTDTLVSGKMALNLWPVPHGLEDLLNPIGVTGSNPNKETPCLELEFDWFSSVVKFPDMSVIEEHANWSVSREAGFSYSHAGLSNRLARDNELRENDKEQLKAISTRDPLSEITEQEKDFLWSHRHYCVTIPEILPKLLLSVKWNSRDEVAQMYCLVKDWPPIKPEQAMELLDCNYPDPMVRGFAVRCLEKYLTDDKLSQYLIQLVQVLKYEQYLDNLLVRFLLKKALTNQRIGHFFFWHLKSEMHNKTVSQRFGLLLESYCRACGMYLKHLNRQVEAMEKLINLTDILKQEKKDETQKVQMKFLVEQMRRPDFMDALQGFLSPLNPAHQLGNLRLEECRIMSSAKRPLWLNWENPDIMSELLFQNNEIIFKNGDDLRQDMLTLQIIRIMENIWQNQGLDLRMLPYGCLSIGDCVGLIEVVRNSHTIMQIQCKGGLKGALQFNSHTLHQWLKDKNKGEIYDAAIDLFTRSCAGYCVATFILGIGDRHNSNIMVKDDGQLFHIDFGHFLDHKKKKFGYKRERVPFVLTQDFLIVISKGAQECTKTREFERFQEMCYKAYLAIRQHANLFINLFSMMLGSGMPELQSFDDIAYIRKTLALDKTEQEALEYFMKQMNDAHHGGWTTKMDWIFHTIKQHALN

IC50 [nM] | Structure (SMILES)
< 100 | O=C(Nc1cc(-c2nc(-c3ccccc3)c(-c3nnc[nH]3)s2)ccn1)C1CC1
< 100 | CC(=O)Nc1cc(-c2sc(-c3cnn[nH]3)c(-c3ccc(Cl)cc3Cl)c2C#N)ccn1
< 100 | Cc1nn2ccccc2c1-c1nc(-c2ccccc2N)c(-c2nc[nH]n2)s1
< 100 | CC(=O)Nc1cc(-c2nc(-c3ccc4c(c3)OCO4)c(-c3ncc[nH]3)s2)ccn1
< 100 | O=C(Nc1cc(-c2nc(-c3ccc(Cl)cc3Cl)c(-c3ncc[nH]3)s2)ccn1)C1CC1
100 to 1000 | Cc1nn2ccccc2c1-c1nc(-c2ccc(NC(=O)OCc3ccccc3)cc2)c(-c2nc[nH]n2)s1
100 to 1000 | COCCNc1cc(-c2sc(-c3nnc[nH]3)c(-c3ccc(Cl)cc3Cl)c2C#N)ccn1
< 100 | COC(=O)Nc1cc(-c2nc(-c3ccc(Cl)cc3Cl)c(-c3ncc[nH]3)s2)ccn1
< 100 | CC(=O)Nc1cc(-c2nc(-c3ccc(Cl)cc3Cl)c(-c3nc(C)c[nH]3)s2)ccn1
< 100 | CCNc1nccc(-c2sc(-c3nnc[nH]3)c(-c3ccc(Cl)cc3Cl)c2C#N)n1
100 to 1000 | CC(=O)Nc1cc(-c2nc(-c3ccc(O)cc3)c(-c3ncc[nH]3)s2)ccn1
< 100 | COC(=O)Nc1cc(-c2cc(-c3ccc(Cl)cc3Cl)c(-c3ncc[nH]3)s2)ccn1
< 100 | Cc1nc2ccc(C=O)cn2c1-c1nc(-c2ccccc2)c(-c2nnc[nH]2)s1
< 100 | COC(=O)Nc1cc(-c2sc(-c3ncc[nH]3)c(-c3ccc(Cl)cc3Cl)c2C#N)ccn1
< 100 | CC(=O)Nc1cc(-c2cc(-c3ccc(Cl)cc3Cl)c(-c3ncc[nH]3)s2)ccn1
< 100 | CCOc1nc(-c2ccnc(NC(C)=O)c2)sc1-c1nnc[nH]1
100 to 1000 | CC(=O)Nc1cc(-c2nc(-c3ccc(C(=O)N4CCNCC4)cc3)c(-c3ncc[nH]3)s2)ccn1
< 100 | Cc1nn2ccccc2c1-c1nc(-c2ccccc2Cl)c(-c2nnc[nH]2)s1
100 to 1000 | CCOc1nc(-c2ccnc(NC(=O)Cc3cccs3)c2)sc1-c1nnc[nH]1
< 100 | Cc1nc2ccc(CN(CCN)Cc3ccccc3)cn2c1-c1nc(-c2ccccc2)c(-c2nnc[nH]2)s1
< 100 | CCOc1nc(-c2ccnc(NC(=O)CCc3ccccc3)c2)sc1-c1nnc[nH]1
< 100 | c1ccc(-c2nc(-c3ccnc4[nH]ccc34)sc2-c2nnc[nH]2)cc1
< 100 | Cc1nn2ccccc2c1-c1nc(-c2cn(C)nc2C(F)(F)F)c(-c2nc[nH]n2)s1

IC50 [nM] | Structure (SMILES)
< 100 | COc1cccc(F)c1-c1nc(-c2c(C)nn3ccc(OC4CCN(C(C)=O)CC4)cc23)sc1-c1nc[nH]n1
100 to 1000 | Cc1nc2ccc(C3CCCCC3)cn2c1-c1nc(-c2ccccc2)c(-c2nc[nH]n2)s1
< 100 | Cc1n[nH]c(C)c1-c1nc(-c2c(C)nn3ccccc23)sc1-c1nc[nH]n1
< 100 | Cc1nn(C)c(C)c1-c1nc(-c2c(C)nn3ccccc23)sc1-c1nc[nH]n1
< 100 | Nc1nc2c(-c3cc(-c4ccc(Cl)cc4Cl)c(-c4ncc[nH]4)s3)ncnc2s1
< 100 | COc1cccc(F)c1-c1nc(-c2c(C)nn3ccccc23)sc1-c1nc[nH]n1
< 100 | Cc1nn2ccccc2c1-c1nc(-c2ccc(CO)cc2)c(-c2nc[nH]n2)s1
100 to 1000 | Cc1nn2ccccc2c1-c1nc(-c2cccc(OCc3ccccc3)c2)c(-c2nc[nH]n2)s1
< 100 | N#Cc1c(-c2ccnc(NC(=O)CO)c2)sc(-c2nnc[nH]2)c1-c1ccc(Cl)cc1Cl
< 100 | COc1ccc(Cl)c(-c2nc(-c3ccnc(NC(C)=O)c3)sc2-c2ncc[nH]2)c1
100 to 1000 | N#Cc1c(-c2ccnc(F)c2)sc(C(N)=O)c1-c1ccc(Cl)cc1Cl
< 100 | CC(=O)Nc1cc(-c2nc(-c3ccccc3C)c(-c3ncc[nH]3)s2)ccn1
100 to 1000 | Cc1nn2ccccc2c1-c1nc(-c2cccc3ncccc23)c(-c2nc[nH]n2)s1
< 100 | Clc1ccc(-c2nc(-c3ccnc4[nH]ccc34)sc2-c2ncc[nH]2)c(Cl)c1
< 100 | Cc1nn2ccccc2c1-c1nc(-c2cccc(F)c2F)c(-c2nc[nH]n2)s1
< 100 | Cc1ccc(-c2nc(-c3c(C)nn4ccccc34)sc2-c2nc[nH]n2)o1
100 to 1000 | CNc1cc(-c2sc(-c3nccn3C)c(-c3ccc(Cl)cc3Cl)c2C#N)ccn1
100 to 1000 | N#Cc1c(-c2ccnc(F)c2)sc(-c2nnc[nH]2)c1-c1ccc(Cl)cc1Cl
100 to 1000 | CNCC(=O)Nc1cc(-c2sc(-c3nnc[nH]3)c(-c3ccc(Cl)cc3Cl)c2C#N)ccn1
< 100 | COc1cccc(F)c1-c1nc(-c2c(C)nn3ccc(OCCN4CCN(S(C)(=O)=O)CC4)cc23)sc1-c1nc[nH]n1
100 to 1000 | CNC(=O)Nc1cc(-c2sc(-c3ccn[nH]3)c(-c3ccc(Cl)cc3Cl)c2C#N)ccn1
< 100 | Cc1ccc(-c2nc(-c3c(C)nn4ccccc34)sc2-c2nc[nH]n2)s1
100 to 1000 | CCOc1nc(-c2ccnc(NC(=O)c3cccc(OC)c3)c2)sc1-c1nnc[nH]1

IC50 [nM] | Structure (SMILES)
< 100 | Cc1nn2ccc(OCCN3CCN(S(C)(=O)=O)CC3)cc2c1-c1nc(-c2ccccc2)c(-c2nc[nH]n2)s1
< 100 | COc1ccc(-c2nc(-c3c(C)nn4ccccc34)sc2-c2nc[nH]n2)c(OC)c1
< 100 | N#Cc1c(-c2ccnc(NC(=O)C3CC3)c2)sc(-c2ccn[nH]2)c1-c1ccc(Cl)cc1Cl
100 to 1000 | N#Cc1c(-c2ccnc(NS(N)(=O)=O)c2)sc(-c2nnc[nH]2)c1-c1ccc(Cl)cc1Cl
< 100 | C=CCOc1nc(-c2c(C)nn3ccccc23)sc1-c1nnc[nH]1
100 to 1000 | Clc1ccc(-c2cc(-c3ncnc4[nH]cnc34)sc2-c2ncc[nH]2)c(Cl)c1
100 to 1000 | CC(=O)Nc1cc(-c2sc(-c3nccn3Cc3ccc(F)cc3)c(-c3ccc(Cl)cc3Cl)c2C#N)ccn1
100 to 1000 | CCOc1nc(-c2ccnc(NC(=O)COC)c2)sc1-c1nnc[nH]1
< 100 | N#Cc1c(-c2ccnc(NCCO)c2)sc(-c2nnc[nH]2)c1-c1ccc(Cl)cc1Cl
100 to 1000 | CN(C)CC(=O)Nc1cc(-c2sc(-c3nnc[nH]3)c(-c3ccc(Cl)cc3Cl)c2C#N)ccn1
100 to 1000 | N#Cc1c(-c2ccncc2)sc(-c2nnc[nH]2)c1-c1ccc(Cl)cc1Cl
100 to 1000 | CCOc1nc(-c2ccnc(NC(=O)c3ccc(N(C)C)cc3)c2)sc1-c1nnc[nH]1
< 100 | Cc1nc(NC(=O)C2CC2)sc1-c1nc(-c2ccccc2)c(-c2nc[nH]n2)s1
100 to 1000 | CC(=O)Nc1cc(-c2nc(-c3ccccc3C(F)(F)F)c(-c3nnc[nH]3)s2)ccn1
100 to 1000 | N=C(N)Nc1cc(-c2cc(-c3ccc(Cl)cc3Cl)c(-c3ncc[nH]3)s2)ccn1
< 100 | Cc1nc2sccn2c1-c1nc(-c2ccccc2)c(-c2nnc[nH]2)s1
< 100 | CCOC(=O)Nc1cc(-c2nc(OCC)c(-c3nc[nH]n3)s2)ccn1
< 100 | Cc1nn2ccccc2c1-c1nc(-c2cnc3ccccc3c2)c(-c2nc[nH]n2)s1
100 to 1000 | CC(=O)Nc1cc(-c2nc(-c3ccc4nonc4c3)c(-c3ncc[nH]3)s2)ccn1
< 100 | COC(=O)Nc1cc(-c2sc(-c3nnc[nH]3)c(-c3ccc(Cl)cc3Cl)c2C#N)ccn1
< 100 | Clc1ccc(-c2cc(-c3ncnc4[nH]ccc34)sc2-c2ncc[nH]2)c(Cl)c1
< 100 | Cc1nn2ccc(O)cc2c1-c1nc(-c2ccccc2)c(-c2nnc[nH]2)s1
< 100 | Clc1ccc(-c2cc(-c3ccnc4[nH]cnc34)sc2-c2ncc[nH]2)c(Cl)c1
